Assay results taken from EP3964211A1, “A COMPOSITION COMPRISING AN ASCORBYL PHOSPHATE, NIACINAMIDE AND ALLANTOIN FOR TREATING ACNE” (DSM IP Assets B.V., priority 2020, dated 2022).
Like-named read-outs stand apart in the source and are kept apart here.

Test system: C. acnes (ATCC reference 11827)
Assay: Cutibacterium acnes Time-Kill assay
Format: cell-based
Method: Sodium ascorbyl phosphate, niacinamide, allantoin as well as a combination thereof were screened for their potential anti-microbial activities against C. acnes (ATCC reference 11827). The action of ingredients and combinations thereof is assessed through a miniaturized method performed in liquid media in 96 deepwell plates format. The inhibition of the growth of C. acnes is compared to the same strain growth in corresponding optimal media.
The different ingredients are mixed in growth medium (final volume 2mL) in deepwell plates (n=3). Analysis controls are prepared and used identically to samples : • A growth control of Cutibacterium acnes in the corresponding culture medium; • A growth control of Cutibacterium acnes with ethanol at 2,5 % (v/v) directly in the culture medium; • A growth control of microorganisms with olive oil at 5 % (v/v) directly in the culture medium; • A control consisting of Salicylic acid at 0.5% directly in the culture medium Then, samples are contaminated with C. acnes, inoculum at final concentration of 3,7 x10^5 cfu/mL, […]
To perform the counting, aliquots of the contaminated samples are serially diluted (decimal dilutions) in culture medium in 96-well plates with triphenyltetrazolium and incubated at 37°C ± 2,5°C during 48 h. After 48 h at the optimal growing conditions, the last dilution showing a pink color (triphenyltetrazolium) or turbidity indicates the contamination rate and allow the determination of the corresponding microbial population.

[1] = 2 h, read-out: Log-step reduction (2h)

Work on `NC(=O)NC1NC(=O)NC1=O` (centres unmarked) [Allantoin, 2,5-dioxo-4-imidazolidinyl urea] yielded a log reduction at 0.5 % (0.5 wt.-% in growth medium, 2h, compared to initial log/cfu of 5.6, n=3, read-out: Log-step reduction (2h)) of 0.6.

In the case of `NC(=O)c1cccnc1` [Niacinamide, pyridine-3-carboxamide], the log reduction at 3 % [1] is reported as 0.7.

With `O=C(O)c1ccccc1O` [Salicylic acid, reference compound] the log reduction at 0.5 % [1] was 3 and the log reduction at 0.5 % (2.5 h, read-out: log-step reduction of C. acnes) was 3.

With `O=C1O[C@H]([C@@H](O)CO)C(O)=C1OP(=O)(O)O` [Sodium ascorbyl phosphate, sodium ascorbyl phosphate] the log reduction at 3 % (3 wt.-% in growth medium, 2h, compared to initial log/cfu of 5.6, n=3, read-out: Log-step reduction (2h)) was 1.7.
